Source: patent publication US10921324B2, “Compositions and methods related to the methylation of histone H1.0 protein” (Aelan Cell Technologies, Inc., priority 2016, dated 2021)
Ends that are not written are not given here.

Tests used:
G9A methyltransferase [1] = assay: In vitro methylation of unmodified H1.0 peptide with G9A, products by LC-MS; assay type: biochemical
Experimental: In order to identify the precise sites of methylation by G9A and GLP methyltransferases on histone H1.0, in vitro methylation assays were performed and subsequently analyzed by Liquid Chromatography and High-resolution Mass Spectrometry (LC-MS) analysis. Methylation reactions were set up using either G9A methyltransferase (NEB, M0235S, Lot #0031201) or GLP methyltransferase (Cayman Chemical, 10755). The methyl donor in each reaction was unlabeled S-Adenosyl-L-Methionine (NEB, B9003S). The H1.0 substrate in each reaction was either unmodified H1.0 peptide labeled with biotin (ThermoFisher Scientific, Biotin-[…] (SEQ ID NO:69)), di-methylated H1.0 peptide (ThermoFisher Scientific, Biotin-[…]^(me2)PK (SEQ ID NO:70)), or full-length recombinant human H1.0 (NEB, M2501S). […]
For the Liquid Chromatography and High-resolution Mass Spectrometry (LC-MS) analysis, samples were prepared as described above and about 1 μg o the product was injected onto a Thermo Scientific Easy nLC system configured with a 10 cm×100 um trap column and a 25 cm×100 um ID resolving column. […] This ensured optimal full-scan data for quantification. […]
Protein identification was performed using Thermo Scientific Proteome Discoverer version 1.4 (including Sequest and Percolator algorithms) using RefSeqHuman sequence database. […] Protein quantification was performed using Pinpoint version 1.4 software. The Pinpoint quantification workflow included importing the Proteome Discoverer .msf files as spectral libraries. Identified peptides were subsequently quantified in MS .raw files using the Pinpoint peak finding, chromatographic alignment and area calculation algorithms.
In order to identify the precise locations of G9A methylation on unmodified H1.0 peptide ([…] (SEQ ID NO:36)), a methylation reaction was set up and the products identified by LC-MS. […] The methylation reaction was subsequently analyzed by LC-MS, and each spectral peak (corresponding to a peptide species in the final reaction) was identified and quantified using spectral counts. […]

G9A methyltransferase [2] = assay: Radiolabel in vitro methylation assay of H1.0 peptide (autoradiography); assay type: biochemical; settings: 10U G9A, S-[Methyl-3H] SAM, 37° C. 1 hour
Experimental: In order to visualize methylation of H1.0 peptide by G9A methyltransferase in vitro, a methylation assay was performed incorporating a radiolabelled methyl donor, which allows for visualization of methylated peptide on a gel after autoradiography exposure. The following methylation reaction was set up in a 1.5 ml tube: 1×HMT reaction buffer (50 mM Tris-HCl, 5 mM MgCl2, 4 mM dithiothreitol, pH 9.0), 10U G9A Methyltransferase (NEB, M0235S, Lot #0031201), 3.2 mM Adenosyl-L-Methionine, S-[Methyl-3H] (Perkin Elmer, NET155H, Lot #1664720), 10 μg H1.0 peptide (ThermoFisher Scientific, Biotin-[…] (SEQ ID NO:69)), final volume 10 μl. A control reaction as above but without H1.0 peptide was also created. Reactions were incubated in a thermocycler at 37° C. for 1 hour. Reactions were stopped by incubating on ice for 5 minutes, and subsequently resolved on a 16.5% Tricine gel (BioRad, 4563063). Gels were soaked in 30% methanol, 5% glycerol for 30 minutes before vacuum drying at RT for 24 hours. Autoradiography analysis of dried gels with a phosphoimager (Molecular Dynamics) was then performed to assess effective methylation of H1.0 peptide with methyl-3H groups by the G9A methyltransferase. (Example 1, FIG. 8A)
The methylation reaction was subsequently resolved on a gel and visualized via autoradiography. […] A control reaction lacking H1.0 peptide yielded no tritium-labeled products.

Chain of G9A methyltransferase (Q9Z148 969-1263 limits assumed): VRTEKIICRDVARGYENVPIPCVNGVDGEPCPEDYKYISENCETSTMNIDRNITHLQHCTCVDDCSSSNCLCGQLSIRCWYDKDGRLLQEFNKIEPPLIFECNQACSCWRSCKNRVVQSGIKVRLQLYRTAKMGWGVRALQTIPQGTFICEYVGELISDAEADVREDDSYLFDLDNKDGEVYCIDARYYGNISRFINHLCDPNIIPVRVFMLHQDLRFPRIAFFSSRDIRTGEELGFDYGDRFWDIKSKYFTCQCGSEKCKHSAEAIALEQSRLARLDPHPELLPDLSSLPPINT

AKPVKASKPKKAKPVKPK (not fully specified (N-terminus); listed as Homo sapiens) [unmethylated H1.0 peptide, unmodified H1.0 peptide substrate for in vitro methylation]
sites of methylation by G9A on the peptide (G9A methyltransferase [1]; LC-MS): dimethylates lysine K180 but not other lysines (K166, K174, K175 or K177) | H1.0K180 dimethylated, % of all peptides (G9A methyltransferase [1]; LC-MS spectral counts, 10U G9A, 3.2 mM S-Adenosyl-L-Methionine, 37° C. 1 hour): 99.9% | estimated methylation efficiency (G9A methyltransferase [1]; dimethylation of K180 by G9A): about 99% | methylation of H1.0 peptide by G9A (tritium-labeled methyl groups, band at 4 kDa) (G9A methyltransferase [2]): capable of methylating an H1.0 peptide
